Experimental data reported in PubChem BioAssay (NCI).
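Method: 48-hour compound exposure of cells in 96-well plates, five concentrations, linear interpolation of endpoints. GI50 = concentration required for 50% inhibition of growth. TGI: total growth inhibition.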

What was measured:
Test in all cases: inhibition of tumour cell growth, NCI panel, 48 h
786-0 renal = system: 786-0 renal
A498 renal = system: A498 renal
A549 NSCLC = system: A549 NSCLC
ACHN renal = system: ACHN renal
BT-549 breast = system: BT-549 breast
CAKI-1 renal = system: CAKI-1 renal
CCRF-CEM leukemia = system: CCRF-CEM leukemia
COLO 205 colon = system: COLO 205 colon
DU-145 prostate = system: DU-145 prostate
EKVX NSCLC = system: EKVX NSCLC
HCC-2998 colon = system: HCC-2998 colon
HCT-116 colon = system: HCT-116 colon
HCT-15 colon = system: HCT-15 colon
HL-60(TB) leukemia = system: HL-60(TB) leukemia
HOP-62 NSCLC = system: HOP-62 NSCLC
HS 578T breast = system: HS 578T breast
HT29 colon = system: HT29 colon
IGROV1 ovarian = system: IGROV1 ovarian
K-562 leukemia = system: K-562 leukemia
KM12 colon = system: KM12 colon
LOX IMVI melanoma = system: LOX IMVI melanoma
M14 melanoma = system: M14 melanoma
MALME-3M melanoma = system: MALME-3M melanoma
MCF7 breast = system: MCF7 breast
MDA-MB-231 breast = system: MDA-MB-231 breast
MDA-MB-435 = system: MDA-MB-435
MDA-MB-468 breast = system: MDA-MB-468 breast
MOLT-4 leukemia = system: MOLT-4 leukemia
NCI-H226 lung = system: NCI-H226 lung
NCI-H23 lung = system: NCI-H23 lung
NCI-H460 lung = system: NCI-H460 lung
NCI-H522 lung = system: NCI-H522 lung
NCI/ADR-RES ovarian = system: NCI/ADR-RES ovarian
OVCAR-3 ovarian = system: OVCAR-3 ovarian
OVCAR-4 ovarian = system: OVCAR-4 ovarian
OVCAR-5 ovarian = system: OVCAR-5 ovarian
OVCAR-8 ovarian = system: OVCAR-8 ovarian
PC-3 prostate = system: PC-3 prostate
RPMI-8226 leukemia = system: RPMI-8226 leukemia
RXF 393 renal = system: RXF 393 renal
SF-268 CNS = system: SF-268 CNS
SF-295 CNS = system: SF-295 CNS
SF-539 CNS = system: SF-539 CNS
SK-MEL-2 melanoma = system: SK-MEL-2 melanoma
SK-MEL-28 melanoma = system: SK-MEL-28 melanoma
SK-MEL-5 melanoma = system: SK-MEL-5 melanoma
SK-OV-3 ovarian = system: SK-OV-3 ovarian
SN12C renal = system: SN12C renal
SNB-19 CNS = system: SNB-19 CNS
SR leukemia = system: SR leukemia
SW-620 colon = system: SW-620 colon
TK-10 renal = system: TK-10 renal
U251 CNS = system: U251 CNS
UACC-257 melanoma = system: UACC-257 melanoma
UACC-62 melanoma = system: UACC-62 melanoma
UO-31 renal = system: UO-31 renal

With C=C1CC[C@H](C(=C)C)[C@H]2C=C(C)C(=O)C3=C(C(=O)[C@@](C)(O)C3)[C@H]12 the GI50 (786-0 renal) was 1750 nM, the TGI (786-0 renal) was 3170 nM and the GI50 (A498 renal) was 3560 nM. For the same molecule, the TGI (A498 renal) was 8500 nM, the GI50 (A549 NSCLC) was 1270 nM and the TGI (A549 NSCLC) was 3000 nM. For the same molecule, the GI50 (ACHN renal) was 1480 nM, the TGI (ACHN renal) was 2800 nM and the GI50 (BT-549 breast) was 1450 nM. It also gave a TGI (BT-549 breast) of 2770 nM, a GI50 (CAKI-1 renal) of 1570 nM and a TGI (CAKI-1 renal) of 2980 nM. The GI50 (CCRF-CEM leukemia) was 2260 nM, the TGI (CCRF-CEM leukemia) was 5250 nM and the GI50 (COLO 205 colon) was 1740 nM. The TGI (COLO 205 colon) was 3250 nM, the GI50 (DU-145 prostate) was 1230 nM and the TGI (DU-145 prostate) was 2480 nM. It also gave a GI50 (EKVX NSCLC) of 1700 nM, a TGI (EKVX NSCLC) of 3300 nM and a GI50 (HCC-2998 colon) of 1280 nM. For the same molecule, the TGI (HCC-2998 colon) was 2540 nM, the GI50 (HCT-116 colon) was 801 nM and the TGI (HCT-116 colon) was 2070 nM. It also gave a GI50 (HCT-15 colon) of 349 nM, a TGI (HCT-15 colon) of 1400 nM and a GI50 (HL-60(TB) leukemia) of 853 nM. The TGI (HL-60(TB) leukemia) was 3760 nM, the GI50 (HOP-62 NSCLC) was 1760 nM and the TGI (HOP-62 NSCLC) was 3270 nM. For the same molecule, the GI50 (HS 578T breast) was 3030 nM, the TGI (HS 578T breast) was 17700 nM and the GI50 (HT29 colon) was 1070 nM. For the same molecule, the TGI (HT29 colon) was 3230 nM, the GI50 (IGROV1 ovarian) was 1280 nM and the TGI (IGROV1 ovarian) was 2880 nM. The GI50 (K-562 leukemia) was 611 nM, the TGI (K-562 leukemia) was 13100 nM and the GI50 (KM12 colon) was 1460 nM. The TGI (KM12 colon) was 3270 nM, the GI50 (LOX IMVI melanoma) was 369 nM and the TGI (LOX IMVI melanoma) was 1500 nM. The GI50 (M14 melanoma) was 1340 nM, the TGI (M14 melanoma) was 2820 nM and the GI50 (MALME-3M melanoma) was 1470 nM. For the same molecule, the TGI (MALME-3M melanoma) was 2880 nM, the GI50 (MCF7 breast) was 639 nM and the TGI (MCF7 breast) was 2020 nM. The GI50 (MDA-MB-231 breast) was 1390 nM, the TGI (MDA-MB-231 breast) was 2740 nM and the GI50 (MDA-MB-435) was 1550 nM. It also gave a TGI (MDA-MB-435) of 3140 nM, a GI50 (MDA-MB-468 breast) of 528 nM and a TGI (MDA-MB-468 breast) of 1940 nM. It also gave a GI50 (MOLT-4 leukemia) of 1210 nM, a TGI (MOLT-4 leukemia) of 3750 nM and a GI50 (NCI-H226 lung) of 1470 nM. For the same molecule, the TGI (NCI-H226 lung) was 3060 nM, the GI50 (NCI-H23 lung) was 1630 nM and the TGI (NCI-H23 lung) was 3260 nM. For the same molecule, the GI50 (NCI-H460 lung) was 1480 nM, the TGI (NCI-H460 lung) was 4040 nM and the GI50 (NCI-H522 lung) was 1180 nM. It also gave a TGI (NCI-H522 lung) of 2530 nM, a GI50 (NCI/ADR-RES ovarian) of 1950 nM and a TGI (NCI/ADR-RES ovarian) of 5520 nM. The GI50 (OVCAR-3 ovarian) was 1200 nM, the TGI (OVCAR-3 ovarian) was 2480 nM and the GI50 (OVCAR-4 ovarian) was 1550 nM. For the same molecule, the TGI (OVCAR-4 ovarian) was 2990 nM, the GI50 (OVCAR-5 ovarian) was 1520 nM and the TGI (OVCAR-5 ovarian) was 2980 nM. The GI50 (OVCAR-8 ovarian) was 1460 nM, the TGI (OVCAR-8 ovarian) was 3690 nM and the GI50 (PC-3 prostate) was 1670 nM. It also gave a TGI (PC-3 prostate) of 3330 nM, a GI50 (RPMI-8226 leukemia) of 1160 nM and a TGI (RPMI-8226 leukemia) of 3420 nM. It also gave a GI50 (RXF 393 renal) of 1510 nM, a TGI (RXF 393 renal) of 2990 nM and a GI50 (SF-268 CNS) of 1580 nM. It also gave a TGI (SF-268 CNS) of 3360 nM, a GI50 (SF-295 CNS) of 1480 nM and a TGI (SF-295 CNS) of 2840 nM. It also gave a GI50 (SF-539 CNS) of 1410 nM, a TGI (SF-539 CNS) of 2710 nM and a GI50 (SK-MEL-2 melanoma) of 1460 nM. The TGI (SK-MEL-2 melanoma) was 2880 nM, the GI50 (SK-MEL-28 melanoma) was 1630 nM and the TGI (SK-MEL-28 melanoma) was 2990 nM. It also gave a GI50 (SK-MEL-5 melanoma) of 1480 nM, a TGI (SK-MEL-5 melanoma) of 2830 nM and a GI50 (SK-OV-3 ovarian) of 1870 nM. It also gave a TGI (SK-OV-3 ovarian) of 3830 nM, a GI50 (SN12C renal) of 1190 nM and a TGI (SN12C renal) of 2550 nM. For the same molecule, the GI50 (SNB-19 CNS) was 1650 nM, the TGI (SNB-19 CNS) was 3010 nM and the GI50 (SR leukemia) was 324 nM. The TGI (SR leukemia) was 2060 nM, the GI50 (SW-620 colon) was 1380 nM and the TGI (SW-620 colon) was 3110 nM. For the same molecule, the GI50 (TK-10 renal) was 1790 nM, the TGI (TK-10 renal) was 3220 nM and the GI50 (U251 CNS) was 1090 nM. It also gave a TGI (U251 CNS) of 2380 nM, a GI50 (UACC-257 melanoma) of 1350 nM and a TGI (UACC-257 melanoma) of 2760 nM. It also gave a GI50 (UACC-62 melanoma) of 1230 nM, a TGI (UACC-62 melanoma) of 2480 nM and a GI50 (UO-31 renal) of 1120 nM. The TGI (UO-31 renal) was 2320 nM.
